Measured values reported in BigSolDB 2.1.

Work on `CN(C)[C@@H]1C(=O)C(C(N)=O)=C(O)[C@@]2(O)C(=O)C3=C(O)c4c(O)cccc4C[C@H]3C[C@@H]12` yielded a solubility (mole fraction) (in 1,4-dioxane, 288.15 K) of 0.00134, a solubility (mole fraction) (in 1,4-dioxane, 293.15 K) of 0.00159 and a solubility (mole fraction) (in 1,4-dioxane, 298.15 K) of 0.00188. It also gave a solubility (mole fraction) (in 1,4-dioxane, 303.15 K) of 0.0022, a solubility (mole fraction) (in 1,4-dioxane, 308.15 K) of 0.00255 and a solubility (mole fraction) (in 1,4-dioxane, 313.15 K) of 0.00294. It also gave a solubility (mole fraction) (in 1,4-dioxane, 318.15 K) of 0.00336, a solubility (mole fraction) (in acetonitrile, 278.15 K) of 0.000118 and a solubility (mole fraction) (in acetonitrile, 283.15 K) of 0.00013. It also gave a solubility (mole fraction) (in acetonitrile, 288.15 K) of 0.000143, a solubility (mole fraction) (in acetonitrile, 293.15 K) of 0.000156 and a solubility (mole fraction) (in acetonitrile, 298.15 K) of 0.000171. For the same compound, the solubility (mole fraction) (in acetonitrile, 303.15 K) was 0.000188, the solubility (mole fraction) (in acetonitrile, 308.15 K) was 0.000206 and the solubility (mole fraction) (in acetonitrile, 313.15 K) was 0.000226. It also gave a solubility (mole fraction) (in acetonitrile, 318.15 K) of 0.000248, a solubility (mole fraction) (in cyclohexane, 278.15 K) of 7.64e-06 and a solubility (mole fraction) (in cyclohexane, 283.15 K) of 1.05e-05. For the same compound, the solubility (mole fraction) (in cyclohexane, 288.15 K) was 1.42e-05, the solubility (mole fraction) (in cyclohexane, 293.15 K) was 1.93e-05 and the solubility (mole fraction) (in cyclohexane, 298.15 K) was 2.47e-05. It also gave a solubility (mole fraction) (in cyclohexane, 303.15 K) of 3.03e-05, a solubility (mole fraction) (in cyclohexane, 308.15 K) of 3.85e-05 and a solubility (mole fraction) (in cyclohexane, 313.15 K) of 4.74e-05. The solubility (mole fraction) (in cyclohexane, 318.15 K) was 5.7e-05, the solubility (mole fraction) (in ethanol, 278.15 K) was 0.000131 and the solubility (mole fraction) (in ethanol, 283.15 K) was 0.000144. For the same compound, the solubility (mole fraction) (in ethanol, 288.15 K) was 0.000158, the solubility (mole fraction) (in ethanol, 293.15 K) was 0.000172 and the solubility (mole fraction) (in ethanol, 298.15 K) was 0.000188. For the same compound, the solubility (mole fraction) (in ethanol, 303.15 K) was 0.000207, the solubility (mole fraction) (in ethanol, 308.15 K) was 0.000225 and the solubility (mole fraction) (in ethanol, 313.15 K) was 0.000244. It also gave a solubility (mole fraction) (in ethanol, 318.15 K) of 0.000264, a solubility (mole fraction) (in ethyl acetate, 278.15 K) of 0.00032 and a solubility (mole fraction) (in ethyl acetate, 283.15 K) of 0.000392. For the same compound, the solubility (mole fraction) (in ethyl acetate, 288.15 K) was 0.000464, the solubility (mole fraction) (in ethyl acetate, 293.15 K) was 0.000551 and the solubility (mole fraction) (in ethyl acetate, 298.15 K) was 0.000649. For the same compound, the solubility (mole fraction) (in ethyl acetate, 303.15 K) was 0.000761, the solubility (mole fraction) (in ethyl acetate, 308.15 K) was 0.000882 and the solubility (mole fraction) (in ethyl acetate, 313.15 K) was 0.00103. It also gave a solubility (mole fraction) (in ethyl acetate, 318.15 K) of 0.00119, a solubility (mole fraction) (in isobutanol, 278.15 K) of 3.76e-05 and a solubility (mole fraction) (in isobutanol, 283.15 K) of 4.32e-05. It also gave a solubility (mole fraction) (in isobutanol, 288.15 K) of 4.9e-05, a solubility (mole fraction) (in isobutanol, 293.15 K) of 5.53e-05 and a solubility (mole fraction) (in isobutanol, 298.15 K) of 6.3e-05. It also gave a solubility (mole fraction) (in isobutanol, 303.15 K) of 7.17e-05, a solubility (mole fraction) (in isobutanol, 308.15 K) of 8.14e-05 and a solubility (mole fraction) (in isobutanol, 313.15 K) of 9.21e-05. The solubility (mole fraction) (in isobutanol, 318.15 K) was 0.000103, the solubility (mole fraction) (in isopropanol, 278.15 K) was 4.02e-05 and the solubility (mole fraction) (in isopropanol, 283.15 K) was 4.65e-05. For the same compound, the solubility (mole fraction) (in isopropanol, 288.15 K) was 5.37e-05, the solubility (mole fraction) (in isopropanol, 293.15 K) was 6.18e-05 and the solubility (mole fraction) (in isopropanol, 298.15 K) was 7.05e-05. It also gave a solubility (mole fraction) (in isopropanol, 303.15 K) of 8.05e-05, a solubility (mole fraction) (in isopropanol, 308.15 K) of 9.19e-05 and a solubility (mole fraction) (in isopropanol, 313.15 K) of 0.000105. It also gave a solubility (mole fraction) (in isopropanol, 318.15 K) of 0.000118, a solubility (mole fraction) (in methanol, 278.15 K) of 0.000166 and a solubility (mole fraction) (in methanol, 283.15 K) of 0.000183. It also gave a solubility (mole fraction) (in methanol, 288.15 K) of 0.0002, a solubility (mole fraction) (in methanol, 293.15 K) of 0.000218 and a solubility (mole fraction) (in methanol, 298.15 K) of 0.000237. For the same compound, the solubility (mole fraction) (in methanol, 303.15 K) was 0.000258, the solubility (mole fraction) (in methanol, 308.15 K) was 0.000282 and the solubility (mole fraction) (in methanol, 313.15 K) was 0.000306. The solubility (mole fraction) (in methanol, 318.15 K) was 0.000332, the solubility (mole fraction) (in n-butanol, 278.15 K) was 4.76e-05 and the solubility (mole fraction) (in n-butanol, 283.15 K) was 5.56e-05. It also gave a solubility (mole fraction) (in n-butanol, 288.15 K) of 6.47e-05, a solubility (mole fraction) (in n-butanol, 293.15 K) of 7.34e-05 and a solubility (mole fraction) (in n-butanol, 298.15 K) of 8.37e-05. The solubility (mole fraction) (in n-butanol, 303.15 K) was 9.51e-05, the solubility (mole fraction) (in n-butanol, 308.15 K) was 0.000107 and the solubility (mole fraction) (in n-butanol, 313.15 K) was 0.000121. It also gave a solubility (mole fraction) (in n-butanol, 318.15 K) of 0.000135, a solubility (mole fraction) (in n-hexane, 278.15 K) of 3.64e-05 and a solubility (mole fraction) (in n-hexane, 283.15 K) of 4.07e-05. The solubility (mole fraction) (in n-hexane, 288.15 K) was 4.51e-05, the solubility (mole fraction) (in n-hexane, 293.15 K) was 5.06e-05 and the solubility (mole fraction) (in n-hexane, 298.15 K) was 5.66e-05. The solubility (mole fraction) (in n-hexane, 303.15 K) was 6.34e-05, the solubility (mole fraction) (in n-hexane, 308.15 K) was 7.17e-05 and the solubility (mole fraction) (in n-hexane, 313.15 K) was 8.08e-05. It also gave a solubility (mole fraction) (in n-hexane, 318.15 K) of 8.98e-05, a solubility (mole fraction) (in n-octanol, 278.15 K) of 3.16e-05 and a solubility (mole fraction) (in n-octanol, 283.15 K) of 3.56e-05. The solubility (mole fraction) (in n-octanol, 288.15 K) was 3.99e-05, the solubility (mole fraction) (in n-octanol, 293.15 K) was 4.48e-05 and the solubility (mole fraction) (in n-octanol, 298.15 K) was 5.08e-05. The solubility (mole fraction) (in n-octanol, 303.15 K) was 5.71e-05, the solubility (mole fraction) (in n-octanol, 308.15 K) was 6.47e-05 and the solubility (mole fraction) (in n-octanol, 313.15 K) was 7.21e-05. The solubility (mole fraction) (in n-octanol, 318.15 K) was 8.04e-05, the solubility (mole fraction) (in n-propanol, 278.15 K) was 0.000101 and the solubility (mole fraction) (in n-propanol, 283.15 K) was 0.000106. The solubility (mole fraction) (in n-propanol, 288.15 K) was 0.000112, the solubility (mole fraction) (in n-propanol, 293.15 K) was 0.00012 and the solubility (mole fraction) (in n-propanol, 298.15 K) was 0.000128. The solubility (mole fraction) (in n-propanol, 303.15 K) was 0.000136, the solubility (mole fraction) (in n-propanol, 308.15 K) was 0.000145 and the solubility (mole fraction) (in n-propanol, 313.15 K) was 0.000155. It also gave a solubility (mole fraction) (in n-propanol, 318.15 K) of 0.000166.
